Where “and” joins values, the source holds several entries; their conditions need not be identical. Identical values can stand only once. Toxic doses and inconclusive results are not listed. Rule as the data show it: active = T/C of 150% or more; inactive = T/C below 125%.
System: L1210 leukemia ip in BDF1 mice, survival T/C
Test: NCI In Vivo Anticancer Drug Screen. Data for tumor model L1210 Leukemia (intraperitoneal) in B6D2F1 (BDF1) mice
Conditions: endpoint: mean survival time, higher = longer survival
Summary of the method: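 Tumor cells were implanted, animals were treated, and survival was followed. The result divides the treated measurement by the vehicle-control measurement.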

[1] = dose: 50.0 mg/kg/injection, schedule: Q01DX001 (ip), vehicle: saline
[2] = dose: 100.0 mg/kg/injection, schedule: Q01DX001 (ip), vehicle: saline
[3] = dose: 200.0 mg/kg/injection, schedule: Q01DX001 (ip), vehicle: saline
[4] = dose: 400.0 mg/kg/injection, schedule: Q01DX001 (ip), vehicle: saline
[5] = dose: 50.0 mg/kg/injection, schedule: Q01DX009 (ip), vehicle: saline with Tween-80
[6] = dose: 100.0 mg/kg/injection, schedule: Q01DX009 (ip), vehicle: Klucel (hydroxypropylcellulose) (HPC)
[7] = dose: 100.0 mg/kg/injection, schedule: Q04DX003 (ip), vehicle: Klucel (hydroxypropylcellulose) (HPC)
[8] = dose: 200.0 mg/kg/injection, schedule: Q01DX009 (ip), vehicle: Klucel (hydroxypropylcellulose) (HPC)
[9] = dose: 200.0 mg/kg/injection, schedule: Q04DX003 (ip), vehicle: Klucel (hydroxypropylcellulose) (HPC)
[10] = dose: 400.0 mg/kg/injection, schedule: Q04DX003 (ip), vehicle: Klucel (hydroxypropylcellulose) (HPC)
[11] = dose: 50.0 mg/kg/injection, schedule: Q01DX009 (ip), vehicle: Klucel (hydroxypropylcellulose) (HPC)
[12] = dose: 200.0 mg/kg/injection, schedule: Q04DX002 (ip), vehicle: Klucel (hydroxypropylcellulose) (HPC)
[13] = dose: 100.0 mg/kg/injection, schedule: Q01DX009 (ip), vehicle: saline with Tween-80
[14] = dose: 100.0 mg/kg/injection, schedule: Q04DX003 (ip), vehicle: saline with Tween-80
[15] = dose: 200.0 mg/kg/injection, schedule: Q01DX009 (ip), vehicle: saline with Tween-80
[16] = dose: 200.0 mg/kg/injection, schedule: Q04DX003 (ip), vehicle: saline with Tween-80
[17] = dose: 400.0 mg/kg/injection, schedule: Q04DX003 (ip), vehicle: saline with Tween-80
[18] = dose: 100.0 mg/kg/injection, schedule: Q01DX001 (ip), vehicle: Klucel (hydroxypropylcellulose) (HPC)
[19] = dose: 200.0 mg/kg/injection, schedule: Q01DX001 (ip), vehicle: Klucel (hydroxypropylcellulose) (HPC)
[20] = dose: 400.0 mg/kg/injection, schedule: Q01DX001 (ip), vehicle: Klucel (hydroxypropylcellulose) (HPC)

Measured: T/C

CC(C)=CCN(CC=C(C)C)CCC(CC=C(C)C)(C(N)=O)c1cccc2ccccc12 (configuration not stated)
inactive: dose: 6.25 mg/kg/injection, schedule: Q01DX009 (ip), vehicle: Klucel (hydroxypropylcellulose) (HPC) 89 % of control | dose: 12.5 mg/kg/injection, schedule: Q01DX009 (ip), vehicle: Klucel (hydroxypropylcellulose) (HPC) 101 % of control | dose: 25.0 mg/kg/injection, schedule: Q01DX009 (ip), vehicle: Klucel (hydroxypropylcellulose) (HPC) 89 % of control

COc1cc(OC)c(-c2nc3ccccc3c(=O)o2)cc1OC
inactive: dose: 75.0 mg/kg/injection, schedule: Q01DX009 (ip), vehicle: Klucel (hydroxypropylcellulose) (HPC) 93 % of control | dose: 150.0 mg/kg/injection, schedule: Q01DX009 (ip), vehicle: Klucel (hydroxypropylcellulose) (HPC) 97 % of control | dose: 300.0 mg/kg/injection, schedule: Q01DX009 (ip), vehicle: Klucel (hydroxypropylcellulose) (HPC) 101 % of control

Nc1c(Br)cccc1Br
inactive: [1] 101 % of control | [2] 109 % of control | [3] 103 % of control | [4] 97 % of control

CCC(=O)NC1CC(OC2CC(O)(C(C)=O)Cc3c(O)c4c(c(O)c32)C(=O)c2c(OC)cccc2C4=O)OC(C)C1O (configuration not stated)
inactive: dose: 2.0 mg/kg/injection, schedule: Q04DX003 (ip), vehicle: water 104 % of control | dose: 3.12 mg/kg/injection, schedule: Q01DX009 (ip), vehicle: saline with Tween-80 96 % of control | dose: 4.0 mg/kg/injection, schedule: Q04DX003 (ip), vehicle: water 105 % of control | dose: 6.25 mg/kg/injection, schedule: Q01DX009 (ip), vehicle: saline with Tween-80 105 % of control | dose: 8.0 mg/kg/injection, schedule: Q04DX003 (ip), vehicle: water 103 % of control | dose: 12.5 mg/kg/injection, schedule: Q01DX009 (ip), vehicle: saline with Tween-80 105 % of control | dose: 16.0 mg/kg/injection, schedule: Q04DX003 (ip), vehicle: water 101 % of control and 102 % of control | dose: 18.75 mg/kg/injection, schedule: Q04DX003 (ip), vehicle: saline with Tween-80 105 % of control | dose: 25.0 mg/kg/injection, schedule: Q01DX009 (ip), vehicle: saline with Tween-80 111 % of control | dose: 32.0 mg/kg/injection, schedule: Q04DX003 (ip), vehicle: water 116 % of control | dose: 37.5 mg/kg/injection, schedule: Q04DX003 (ip), vehicle: saline with Tween-80 105 % of control | [5] 113 % of control | dose: 64.0 mg/kg/injection, schedule: Q04DX003 (ip), vehicle: water 112 % of control | dose: 75.0 mg/kg/injection, schedule: Q04DX003 (ip), vehicle: saline with Tween-80 105 % of control | dose: 150.0 mg/kg/injection, schedule: Q04DX003 (ip), vehicle: saline with Tween-80 122 % of control | dose: 125.0 micrograms/kg/injection, schedule: Q04DX003 (ip), vehicle: water 100 % of control | dose: 250.0 micrograms/kg/injection, schedule: Q04DX003 (ip), vehicle: water 102 % of control | dose: 500.0 micrograms/kg/injection, schedule: Q04DX003 (ip), vehicle: water 97 % of control | dose: 1000.0 micrograms/kg/injection, schedule: Q04DX003 (ip), vehicle: water 103 % of control | dose: 2000.0 micrograms/kg/injection, schedule: Q04DX003 (ip), vehicle: water 96 % of control

CCCC(=O)OC(OC(=O)CCC)c1ccco1
inactive: [2] 92 % of control | [3] 109 % of control | [4] 109 % of control

CC1(CCBr)NC(=O)NC1=O (configuration not stated)
inactive: [6] 121 % of control | [7] 98 % of control | [8] 101 % of control | [9] 119 % of control | dose: 400.0 mg/kg/injection, schedule: Q01DX009 (ip), vehicle: Klucel (hydroxypropylcellulose) (HPC) 95 % of control | [10] 107 % of control

CC(Br)C(=O)O (configuration not stated)
inactive: [1] 94 % of control | [2] 111 % of control

O=C(NCCNC(c1ccccc1)(c1ccccc1)c1ccccc1)C(F)(F)F
inactive: [11] 105 % of control | [6] 100 % of control | [7] 91 % of control | [8] 96 % of control | [9] 100 % of control | [10] 93 % of control

O=C1c2ccccc2C(=O)c2c1cccc2N1CCOCC1
inactive: [12] 98 % of control | dose: 400.0 mg/kg/injection, schedule: Q04DX002 (ip), vehicle: Klucel (hydroxypropylcellulose) (HPC) 112 % of control

O=C(NC(=S)Nc1cccc(O)c1)c1ccco1
inactive: [13] 98 % of control | [14] 104 % of control | [15] 115 % of control | [16] 107 % of control | dose: 400.0 mg/kg/injection, schedule: Q01DX009 (ip), vehicle: saline with Tween-80 95 % of control | [17] 102 % of control

Nc1cccc(CCCCOc2ccccc2)c1
inactive: [13] 97 % of control | [14] 97 % of control | [15] 98 % of control | [16] 103 % of control | [17] 105 % of control

O=C(CNC(=O)Nc1ccc(Cl)c(Cl)c1)N/N=C/C=C/c1ccccc1
inactive: [5] 96 % of control | [13] 96 % of control | [15] 93 % of control

COC(=O)Cc1cc(=O)c2ccccc2[nH]1
inactive: dose: 50.0 mg/kg/injection, schedule: Q01DX009 (ip), vehicle: saline 94 % of control | dose: 100.0 mg/kg/injection, schedule: Q01DX009 (ip), vehicle: saline 103 % of control | dose: 100.0 mg/kg/injection, schedule: Q04DX003 (ip), vehicle: saline 96 % of control | dose: 200.0 mg/kg/injection, schedule: Q01DX009 (ip), vehicle: saline 93 % of control | dose: 200.0 mg/kg/injection, schedule: Q04DX003 (ip), vehicle: saline 96 % of control | dose: 400.0 mg/kg/injection, schedule: Q04DX003 (ip), vehicle: saline 91 % of control

OCC1OC(n2cnc3nccnc32)C(O)C1O (configuration not stated)
inactive: dose: 100.0 mg/kg/injection, schedule: Q01DX005 (ip), vehicle: saline 98 % of control | dose: 200.0 mg/kg/injection, schedule: Q01DX005 (ip), vehicle: saline 110 % of control

O=C1C=CC(=O)C(SCCCSC2=CC(=O)C(SCCCSC3=CC(=O)C=CC3=O)=CC2=O)=C1
inactive: [2] 92 % of control | [3] 92 % of control | [4] 101 % of control

O=C(Nc1ccc([N+](=O)[O-])cc1Cl)c1cc(Cl)ccc1O
inactive: [11] 101 % of control | [6] 104 % of control | dose: 100.0 mg/kg/injection, schedule: Q04DX002 (ip), vehicle: Klucel (hydroxypropylcellulose) (HPC) 91 % of control | [8] 101 % of control | [12] 94 % of control

C=CCOC(=O)C1c2ccccc2Cc2ccccc21
inactive: [14] 97 % of control | [16] 97 % of control | [17] 95 % of control

O=C(O)C(c1ccccc1)c1ccccc1
inactive: [18] 97 % of control | dose: 100.0 mg/kg/injection, schedule: Q04DX002 (ip), vehicle: saline 97 % of control | [19] 101 % of control | dose: 200.0 mg/kg/injection, schedule: Q04DX002 (ip), vehicle: saline 97 % of control | [20] 109 % of control | dose: 400.0 mg/kg/injection, schedule: Q04DX002 (ip), vehicle: saline 87 % of control

O=[N+]([O-])c1ccc(S(=O)(=O)Nc2ccc(-c3ccccc3)cc2)cc1
inactive: dose: 100.0 mg/kg/injection, schedule: Q01DX009 (ip), vehicle: other 110 % of control | dose: 100.0 mg/kg/injection, schedule: Q04DX003 (ip), vehicle: other 93 % of control | dose: 200.0 mg/kg/injection, schedule: Q01DX009 (ip), vehicle: other 98 % of control | dose: 200.0 mg/kg/injection, schedule: Q04DX003 (ip), vehicle: other 96 % of control | dose: 400.0 mg/kg/injection, schedule: Q01DX009 (ip), vehicle: other 94 % of control | dose: 400.0 mg/kg/injection, schedule: Q04DX003 (ip), vehicle: other 89 % of control

COC(=O)C1CCC2C3CCC4CC(O)CCC4(C)C3CCC12C (configuration not stated)
inactive: [18] 110 % of control | [19] 100 % of control | [20] 95 % of control
